Measured values as given in PMC4245237, “Searching the Cytochrome P450 Enzymes for the Metabolism of Meranzin Hydrate: A Prospective Antidepressant Originating from Chaihu-Shugan-San” (PLoS ONE, 2014).
Where “and” joins values, the source holds several entries; their conditions need not be identical. Identical values can stand only once. Entries after “also recorded” stand apart in the source; their conditions may differ. Counter-ions that a name gives are not always drawn. Like-named read-outs stand apart in the source and are kept apart here.

Legend:
CYP2E1 = CYP2E1 (Homo sapiens, UniProt P05181); settings: cited from earlier work
Chain of CYP2E1 (P05181 whole entry): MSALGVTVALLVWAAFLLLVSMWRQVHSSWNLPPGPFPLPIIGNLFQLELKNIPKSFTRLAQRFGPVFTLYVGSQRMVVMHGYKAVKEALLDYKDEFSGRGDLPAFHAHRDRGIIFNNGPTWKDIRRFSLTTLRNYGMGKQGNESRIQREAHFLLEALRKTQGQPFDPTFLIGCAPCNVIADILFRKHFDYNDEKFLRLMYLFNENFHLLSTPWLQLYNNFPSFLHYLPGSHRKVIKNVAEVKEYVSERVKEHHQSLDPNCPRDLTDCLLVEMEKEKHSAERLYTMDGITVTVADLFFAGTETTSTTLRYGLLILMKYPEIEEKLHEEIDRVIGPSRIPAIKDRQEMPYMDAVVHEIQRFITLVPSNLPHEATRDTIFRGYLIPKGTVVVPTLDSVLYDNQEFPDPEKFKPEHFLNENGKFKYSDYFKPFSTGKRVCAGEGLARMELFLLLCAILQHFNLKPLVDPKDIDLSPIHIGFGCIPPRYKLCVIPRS

CYP1A2 [1] = target: T1, CYP1A2 (Homo sapiens, UniProt P05177); assay: MCR of MH with recombinant CYP1A2 inhibited by furafylline; type: in vitro ADME; design: purchased Cypex Ltd. (U.K.); settings: furafylline 1 µM
T1 sequence (P05177 1-516): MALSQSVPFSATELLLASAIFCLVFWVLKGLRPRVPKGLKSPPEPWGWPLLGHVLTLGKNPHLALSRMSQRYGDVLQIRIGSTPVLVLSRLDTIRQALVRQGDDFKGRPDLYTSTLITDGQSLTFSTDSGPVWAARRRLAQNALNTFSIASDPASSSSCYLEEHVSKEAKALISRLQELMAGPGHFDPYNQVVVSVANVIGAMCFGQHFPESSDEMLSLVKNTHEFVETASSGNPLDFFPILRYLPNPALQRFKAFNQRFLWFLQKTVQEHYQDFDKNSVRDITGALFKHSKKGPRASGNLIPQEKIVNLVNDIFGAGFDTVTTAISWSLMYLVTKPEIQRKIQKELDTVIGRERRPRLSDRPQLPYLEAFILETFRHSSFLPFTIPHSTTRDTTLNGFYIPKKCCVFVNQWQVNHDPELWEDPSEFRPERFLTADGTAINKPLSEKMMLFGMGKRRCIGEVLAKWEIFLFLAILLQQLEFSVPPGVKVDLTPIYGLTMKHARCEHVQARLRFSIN
Procedure: (§1) The samples were vortexed for 5 min.
(§2) Figure 3 Effect on the metabolic clearance rate (MCR) of meranzin hydrate (MH) under the inhibition of recombinant CYP1A2 and CYP2C19. […] Each point represents the average of triplicate incubations.

CYP2C9 [2] = target: T2, CYP2C9 (Homo sapiens, UniProt P11712); assay: Inhibition of CYP2C9 (tolbutamide 4-hydroxylation) in HLMs; type: in vitro ADME
T2 construct: tissue Cypex Ltd. (U.K.); host or cells: pooled human liver microsomes, ten donors
T2 sequence (P11712 whole entry): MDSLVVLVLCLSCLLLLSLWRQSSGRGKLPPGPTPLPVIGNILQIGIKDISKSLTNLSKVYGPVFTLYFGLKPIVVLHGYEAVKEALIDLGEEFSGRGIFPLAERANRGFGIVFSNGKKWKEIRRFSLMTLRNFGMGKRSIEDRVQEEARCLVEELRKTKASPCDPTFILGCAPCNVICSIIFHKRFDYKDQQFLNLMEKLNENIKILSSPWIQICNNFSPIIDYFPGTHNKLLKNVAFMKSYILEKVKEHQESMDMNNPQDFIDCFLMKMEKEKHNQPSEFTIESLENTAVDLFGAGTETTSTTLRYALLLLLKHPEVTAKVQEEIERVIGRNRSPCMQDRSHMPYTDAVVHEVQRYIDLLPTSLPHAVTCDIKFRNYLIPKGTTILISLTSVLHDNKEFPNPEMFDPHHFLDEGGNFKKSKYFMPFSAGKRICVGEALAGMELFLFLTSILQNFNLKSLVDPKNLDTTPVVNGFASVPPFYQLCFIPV
Procedure: as §1
(§3) All incubation conditions were the same as mentioned above.
(§4) P<0.05 denoted significance in all cases.

CYP2D6 [3] = target: T3, CYP2D6 (Homo sapiens, UniProt P10635); assay: Inhibition of CYP2D6 (metoprolol α-hydroxylation) in HLMs; type: in vitro ADME
T3 construct: tissue Cypex Ltd. (U.K.); host or cells: pooled human liver microsomes, ten donors
T3 sequence (P10635 whole entry): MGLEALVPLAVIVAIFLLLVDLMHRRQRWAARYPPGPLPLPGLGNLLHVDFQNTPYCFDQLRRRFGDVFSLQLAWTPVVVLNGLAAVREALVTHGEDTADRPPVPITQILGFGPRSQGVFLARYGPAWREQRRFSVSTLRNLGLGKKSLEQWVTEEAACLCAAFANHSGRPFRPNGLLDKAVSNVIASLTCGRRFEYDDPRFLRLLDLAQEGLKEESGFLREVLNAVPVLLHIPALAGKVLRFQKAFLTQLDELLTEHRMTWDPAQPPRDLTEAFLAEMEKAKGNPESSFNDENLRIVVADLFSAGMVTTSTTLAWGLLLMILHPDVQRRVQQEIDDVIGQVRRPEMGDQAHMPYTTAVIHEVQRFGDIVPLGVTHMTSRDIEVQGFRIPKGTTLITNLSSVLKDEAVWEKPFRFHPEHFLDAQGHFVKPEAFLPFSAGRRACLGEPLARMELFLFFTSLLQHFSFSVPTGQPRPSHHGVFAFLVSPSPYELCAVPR
Procedure: as §1, §3, §4

CYP1A2 [4] = target: T1, CYP1A2; assay: Kinetic analysis of MH metabolism by recombinant CYP1A2; type: in vitro ADME; design: purchased Cypex Ltd. (U.K.); settings: recombinant CYP1A2 10 pmol
Procedure: as §1
(§5) Kinetic analysis was performed for MH, and the data generated were used as a guide for selecting the appropriate concentrations of MH in the subsequent inhibition experiments. Thus, the kinetic parameters for the metabolism of MH was determined by incubating increasing concentrations of MH (0.5–100 µM) (without the inhibitor) at 37°C with the HLMs and NADPH under the incubation conditions. The equation of MH reaction velocity (V) in the HLMs or CYP isoforms was expressed as V = (C0–Ct)/T/Cp, where C0 and Ct represented the initial and final concentrations of MH in the incubation solution, respectively. T was the incubation time (min) and Cp was the protein concentration (mg/mL or nmol). All values were expressed as the mean±standard deviation (SD). The mean intrinsic clearance rate (CLint) for the in vitro incubation was estimated using Vmax/Km.
as §4

CYP3A4 [5] = target: T4, CYP3A4 (Homo sapiens, UniProt P08684); assay: Effect of specific inhibitor ketoconazole on MH metabolism in HLMs; type: in vitro ADME; settings: MH 10 µM, in the presence of KET 1 µM
T4 construct: tissue Cypex Ltd. (U.K.); host or cells: pooled human liver microsomes, ten donors
T4 sequence (P08684 whole entry): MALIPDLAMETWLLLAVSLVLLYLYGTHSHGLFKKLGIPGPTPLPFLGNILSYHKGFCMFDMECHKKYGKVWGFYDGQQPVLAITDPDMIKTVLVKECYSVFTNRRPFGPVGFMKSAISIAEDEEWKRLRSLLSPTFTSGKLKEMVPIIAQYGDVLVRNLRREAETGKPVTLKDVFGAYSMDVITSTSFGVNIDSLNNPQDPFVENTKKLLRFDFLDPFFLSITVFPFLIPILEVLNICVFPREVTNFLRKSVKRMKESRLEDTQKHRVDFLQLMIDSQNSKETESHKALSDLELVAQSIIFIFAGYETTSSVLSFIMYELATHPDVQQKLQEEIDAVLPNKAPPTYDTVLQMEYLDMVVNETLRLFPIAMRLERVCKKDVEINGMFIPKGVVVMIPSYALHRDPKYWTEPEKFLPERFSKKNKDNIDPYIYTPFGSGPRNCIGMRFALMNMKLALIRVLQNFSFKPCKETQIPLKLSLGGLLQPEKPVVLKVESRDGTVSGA
Procedure: as §1, §4

[6] = design: method as in PMID 21061180; settings: rats; cited from earlier work
[7] = test system: longitudinal and circular jejunum muscles; settings: dose-dependent manner; cited from earlier work
CYP2C19 [8] = target: T5, CYP2C19 (Homo sapiens, UniProt P33261); assay: Inhibition of CYP2C19 (S-Mephenytoin 4-hydroxylation) in HLMs; type: in vitro ADME; design: tissue Cypex Ltd. (U.K.); host or cells: pooled human liver microsomes, ten donors
T5 sequence (P33261 whole entry): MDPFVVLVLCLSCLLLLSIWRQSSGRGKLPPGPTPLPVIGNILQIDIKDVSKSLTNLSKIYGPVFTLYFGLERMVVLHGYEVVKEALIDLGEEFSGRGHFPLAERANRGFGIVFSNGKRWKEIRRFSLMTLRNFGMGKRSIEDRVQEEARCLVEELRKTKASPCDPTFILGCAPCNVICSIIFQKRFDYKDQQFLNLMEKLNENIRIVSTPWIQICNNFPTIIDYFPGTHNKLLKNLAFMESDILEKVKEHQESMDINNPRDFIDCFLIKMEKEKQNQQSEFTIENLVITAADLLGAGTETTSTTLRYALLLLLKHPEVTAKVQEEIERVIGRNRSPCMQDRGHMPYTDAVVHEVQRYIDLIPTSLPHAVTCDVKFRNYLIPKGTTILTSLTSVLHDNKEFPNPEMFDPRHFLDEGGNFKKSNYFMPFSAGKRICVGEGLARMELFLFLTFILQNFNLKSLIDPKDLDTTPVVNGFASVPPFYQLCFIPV
Procedure: as §1, §3
(§6) Therefore, Dixon plots for the inhibition of CYP1A2 and CYP2C19 were determined by incubating the substrate probe at multiple concentrations with or without the test inhibitor at multiple concentrations with the HLMs and cofactors. The inhibition data obtained from the pilot experiments were used as a guide to generate appropriate probe substrate and test inhibitor concentrations for the determination of the Ki values for each CYP isoform. The isoform-specific probe substrate concentrations used were 3 to 100 µM phenacetin for CYP1A2 and 15 to 120 µM S-mephenytoin for CYP2C19. The MH concentrations used were 0 to 100 µM.
as §4

CYP2D6 [9] = target: T3, CYP2D6; assay: Effect of specific inhibitor quinidine on MH metabolism in HLMs; type: in vitro ADME; settings: MH 10 µM, in the presence of QUI 1 µM
Procedure: as §1, §4

CYP2C19 [10] = target: T5, CYP2C19; assay: MCR of MH with recombinant CYP2C19 inhibited by ticlopidine; type: in vitro ADME; design: purchased Cypex Ltd. (U.K.); settings: ticlopidine 1 µM
Procedure: as §1, §2

CYP2C19 [11] = target: T5, CYP2C19; assay: Kinetic analysis of MH metabolism by recombinant CYP2C19; type: in vitro ADME; design: purchased Cypex Ltd. (U.K.); settings: recombinant CYP2C19 10 pmol
Procedure: as §1, §5, §4

CYP1A2 [12] = target: T1, CYP1A2; assay: Inhibition of CYP1A2 (phenacetin O-deethylation) in HLMs; type: in vitro ADME; design: tissue Cypex Ltd. (U.K.); host or cells: pooled human liver microsomes, ten donors
Procedure: as §1, §3, §6, §4

CYP1A2 [13] = target: T1, CYP1A2; assay: Effect of specific inhibitor furafylline on MH metabolism in HLMs; type: in vitro ADME; design: tissue Cypex Ltd. (U.K.); host or cells: pooled human liver microsomes, ten donors; settings: MH 10 µM, in the presence of FUR 1 µM
Procedure: as §1, §4

CYP2C9 [14] = target: T2, CYP2C9; assay: Effect of specific inhibitor sulfaphenazole on MH metabolism in HLMs; type: in vitro ADME; settings: MH 10 µM, in the presence of SUL 1 µM
Procedure: as §1, §4

CYP2C19 [15] = target: T5, CYP2C19; assay: Effect of specific inhibitor ticlopidine on MH metabolism in HLMs; type: in vitro ADME; design: tissue Cypex Ltd. (U.K.); host or cells: pooled human liver microsomes, ten donors; settings: MH 10 µM, in the presence of TIC 1 µM
Procedure: as §1, §4

[16] = test system: human liver microsomes (HLMs); assay: Kinetic analysis of MH metabolism in HLMs; type: in vitro ADME; settings: HLMs 0.5 mg/mL, MH 0.5–100 µM, 30 min, 37°C
CYP3A4 [17] = target: T4, CYP3A4; assay: Inhibition of CYP3A4 (midazolam 1-hydroxylation) in HLMs; type: in vitro ADME
Procedure: as §1, §3, §4

## Cc1ncsc1CCCl [CHL, chlormethiazole hydrochloride]
CYP2E1; read-out: Ki, specific inhibitor reported value, CYP2E1
  Ki: 12 µM

## COc1ccc2ccc(=O)oc2c1C[C@H](O)C(C)(C)O [MH, Meranzin hydrate]
CYP1A2 [1]; recombinant CYP1A2, MH 10 µM
  MCR of MH, % of that of the control: 43.5%
CYP1A2 [1]; recombinant CYP1A2, MH 50 µM
  MCR of MH, % of that of the control: 60.5%
CYP2C9 [2]; CYP2C9, classification of Kong et al [23], read-out: inhibitor potency class by IC50
  IC50: > 50 µM
CYP2C9 [2]; HLMs, tolbutamide 100 µM, read-out: IC50
  IC50: > 100 µM
CYP2D6 [3]; CYP2D6, classification of Kong et al [23], read-out: inhibitor potency class by IC50
  IC50: > 50 µM
CYP2D6 [3]; HLMs, metoprolol 7.5 µM, read-out: IC50
  IC50: > 100 µM
CYP1A2 [4]
  Km: 8 ± 1.6 µM
  Vmax of MH metabolism: 112.4±5.7 nmol/nmol P450/min
CYP1A2 [4]; listed as Meranzin hydrate
  Vmax of MH metabolism: 112.4 nmol/nmol P450/min
CYP3A4 [5]
  effect on metabolism (MCR) of MH: no obvious inhibitory effects
[6]
  gastric emptying: significantly accelerated
  intestinal transit: significantly accelerated
[7]
  amplitude of contractility in the longitudinal and circular jejunum muscles: increase the amplitude of contractility
CYP2C19 [8]; CYP2C19, HLMs, Dixon / Lineweaver-Burk plots
  type of inhibition: competitively; also recorded: full competitive inhibition
CYP2C19 [8]; CYP2C19, classification of Kong et al [23], read-out: inhibitor potency class by IC50
  IC50: 10 to 50 µM
CYP2C19 [8]; HLMs, S-mephenytoin 15 to 120 µM, MH 0 to 100 µM
  Ki: 42.6 µM
CYP2D6 [9]
  effect on metabolism (MCR) of MH: no obvious inhibitory effects
CYP2C19 [10]; recombinant CYP2C19, MH 10 µM
  MCR of MH, % of that of the control: 68.5%
CYP2C19 [10]; recombinant CYP2C19, MH 50 µM
  MCR of MH, % of that of the control: 80.5%
CYP2C19 [11]
  Km: 25.9 ± 6.6 µM
  Vmax of MH metabolism: 134.3±12.4 nmol/nmol P450/min
CYP2C19 [11]; listed as Meranzin hydrate
  Km: 25.9 µM
  Vmax of MH metabolism: 134.3 nmol/nmol P450/min
CYP1A2 [12]; CYP1A2, HLMs, Dixon / Lineweaver-Burk plots
  type of inhibition: competitive
CYP1A2 [12]; CYP1A2, phenacetin O-deethylation, HLMs, higher than FUR
  IC50 of MH relative to that of FUR: 3.2 fold
CYP1A2 [12]; CYP1A2, phenacetin O-deethylation, higher than FUR
  Ki of MH relative to that of FUR: approximately 1.5 fold
CYP1A2 [12]; CYP1A2, classification of Kong et al [23], read-out: inhibitor potency class by IC50
  IC50: < 10 µM
CYP1A2 [12]; HLMs, phenacetin 10 µM, brackets = 95% confidence interval, read-out: IC50
  IC50: 4.47 µM
CYP1A2 [12]; HLMs, phenacetin 3 to 100 µM, MH 0 to 100 µM
  Ki: 4.56 µM
CYP1A2 [13]
  metabolic clearance rate (MCR) of MH, % of that of the control: 29.1±7.2% and 29.1%
CYP2C9 [14]
  effect on metabolism (MCR) of MH: no obvious inhibitory effects
CYP2C19 [15]
  metabolic clearance rate (MCR) of MH, % of that of the control: 41.3±11.1% and 41.3%
[16]
  Km: 10.3 ± 1.3 µM
  Vmax of MH metabolism: 99.1±3.3 nmol/mg protein/min
[16]; listed as Meranzin hydrate
  Km: 10.3 µM
  Vmax of MH metabolism: 99.11 nmol/mg protein/min
CYP3A4 [17]; CYP3A4, classification of Kong et al [23], read-out: inhibitor potency class by IC50
  IC50: > 50 µM
CYP3A4 [17]; HLMs, midazolam 5 µM, read-out: IC50
  IC50: > 100 µM

## CCN(CC)C(=S)S [DIE, diethyldithiocarbamate]
CYP2E1
  IC50: 21.3 µM
